System: sessile SRB colonies
Assay: Experiment 4: biocidal efficacy for planktonic and sessile bacteria, studs from Robins device, 3 hr contact
Format: cell-based, Sulphate Reducing Bacteria (SRB)
Conditions: if it can penetrate the glycocalyx
Procedure: The purpose of killing planktonic SRB is to prevent the formation of sessile SRB colonies. A series of tests has been conducted in which viable sessile cultures have been treated with a range of biocides. Synthetic Seawater [table] Additional nutrients were added to water to encourage bacteria growth. Experiment 4 is a comparison of biocidal efficacy for planktonic and sessile bacteria. Viable SRB colonies are established on studs in a Robins device. The studs are removed, washed in sterile sea water and treated with solutions containing the test biocide. After exposures of 1, 3, 4, 8 or extended periods, coupons are rinsed, scraped and suspended in fresh synthetic sea water. Serial dilutions and ATP analyses are conducted on the samples to determine bacterial activity.

`O=CCCCC=O` [glutaraldehyde] was tested, and the “comparative biocidal efficacy on sessile SRB colonies” value was “more effective biocide than quaternary amines”.
